System: K24384-001-R-PDC complex spheroid growth
Assay: Anticancer human tumor K24384-001-R-PDC patient-derived pancreatic adenocarcinoma cell line growth inhibition [AhR]
Settings: for IC50: curve of first compound; for viability, T/C: stronger effect = lower value
Outline: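 Complex tumor spheroids co-cultured with HUVEC and human MSC stroma; AhR antagonists tested in combination with standard-of-care and investigational agents. Top concentration at or near clinical Cmax (else 10 microM), half-log dilutions; growth expressed as percent test/control.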

[1] = second compound 0.1 µM, first compound 0.00316 µM
[2] = second compound 0.1 µM, first compound 0.01 µM
[3] = second compound 0.1 µM, first compound 0.0316 µM
[4] = second compound 0.1 µM, first compound 0.1 µM
[5] = second compound 0.316 µM, first compound 0.00316 µM
[6] = second compound 0.316 µM, first compound 0.01 µM
[7] = second compound 0.316 µM, first compound 0.0316 µM
[8] = second compound 0.316 µM, first compound 0.1 µM
[9] = second compound 1 µM, first compound 0.00316 µM
[10] = second compound 1 µM, first compound 0.01 µM
[11] = second compound 1 µM, first compound 0.0316 µM
[12] = second compound 1 µM, first compound 0.1 µM
[13] = second compound 3.16 µM, first compound 0.00316 µM
[14] = second compound 3.16 µM, first compound 0.01 µM
[15] = second compound 3.16 µM, first compound 0.0316 µM
[16] = second compound 3.16 µM, first compound 0.1 µM
[17] = second compound 10 µM, first compound 0.00316 µM
[18] = second compound 10 µM, first compound 0.01 µM
[19] = second compound 10 µM, first compound 0.0316 µM
[20] = second compound 10 µM, first compound 0.1 µM
[21] = second compound 0.1 µM, first compound 0.316 µM
[22] = second compound 0.1 µM, first compound 1 µM
[23] = second compound 0.1 µM, first compound 3.16 µM
[24] = second compound 0.1 µM, first compound 10 µM
[25] = second compound 0.316 µM, first compound 0.316 µM
[26] = second compound 0.316 µM, first compound 1 µM
[27] = second compound 0.316 µM, first compound 3.16 µM
[28] = second compound 0.316 µM, first compound 10 µM
[29] = second compound 1 µM, first compound 0.316 µM
[30] = second compound 1 µM, first compound 1 µM
[31] = second compound 1 µM, first compound 3.16 µM
[32] = second compound 1 µM, first compound 10 µM
[33] = second compound 3.16 µM, first compound 0.316 µM
[34] = second compound 3.16 µM, first compound 1 µM
[35] = second compound 3.16 µM, first compound 3.16 µM
[36] = second compound 3.16 µM, first compound 10 µM
[37] = second compound 10 µM, first compound 0.316 µM
[38] = second compound 10 µM, first compound 1 µM
[39] = second compound 10 µM, first compound 3.16 µM
[40] = second compound 10 µM, first compound 10 µM
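Throughout, for viability, T/C: percent of DMSO vehicle-treated spheroid viability set as 100%.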

SMILES | IC50 (second compound 0.1 µM) | IC50 (second compound 0.316 µM) | IC50 (second compound 1 µM) | IC50 (second compound 3.16 µM) | IC50 (second compound 10 µM) | viability, T/C [3] | viability, T/C [4] | viability, T/C [7] | viability, T/C [8] | viability, T/C [11] | viability, T/C [12] | viability, T/C [15] | viability, T/C [16] | viability, T/C [19] | viability, T/C [20] | viability, T/C [21] | viability, T/C [22] | viability, T/C [25] | viability, T/C [26] | viability, T/C [29] | further results
Nc1ccn(C2OC(CO)C(O)C2(F)F)c(=O)n1 (stereo not given) + Cc1cncc(-c2nc(NCCc3c[nH]c4ccccc34)c3ncn(C(C)C)c3n2)c1 | 0.507 µM | 0.636 µM | 0.928 µM | 3.07 µM | < 0.0316 µM | 73.7% | 74.8% | 104% | 79.1% | 98.1% | 111% | 117% | 114% | 13.9% | 11.2% | 51.2% | 42.9% | 50.8% | 51.1% | 74.2% | viability, T/C [23]: 32.4%; viability, T/C [24]: 24.5%; viability, T/C [27]: 35.1%; viability, T/C [28]: 19.6%; viability, T/C [30]: 50.4%; viability, T/C [31]: 41.6%; viability, T/C [32]: 29.2%; viability, T/C [33]: 83.9%; viability, T/C [34]: 70.1%; viability, T/C [35]: 51.7%; viability, T/C [36]: 31.2%; viability, T/C [37]: 13.6%; viability, T/C [38]: 8.91%; viability, T/C [39]: 10.4%; viability, T/C [40]: 10.4%
Nc1ncn(C2CC(O)C(CO)O2)c(=O)n1 (stereo not given) + Cc1cncc(-c2nc(NCCc3c[nH]c4ccccc34)c3ncn(C(C)C)c3n2)c1 | > 1 µM | > 1 µM | > 1 µM | > 1 µM | < 0.00316 µM | 92.8% | 77.5% | 95.8% | 77.7% | 103% | 82.5% | 87.8% | 66.8% | 14.8% | 10.8% | 62.8% | 51.1% | 72.2% | 63.6% | 99.4% | viability, T/C [1]: 83.2%; viability, T/C [2]: 97.6%; viability, T/C [5]: 91.1%; viability, T/C [6]: 101%; viability, T/C [9]: 80.2%; viability, T/C [10]: 101%; viability, T/C [30]: 66%; viability, T/C [13]: 83.1%; viability, T/C [14]: 100%; viability, T/C [33]: 67.9%; viability, T/C [34]: 70.2%; viability, T/C [17]: 13.3%; viability, T/C [18]: 14.3%; viability, T/C [37]: 8.89%; viability, T/C [38]: 11.4%

Further compounds by falling IC50 (second compound 0.1 µM), results first:

IC50 (second compound 0.1 µM) | IC50 (second compound 0.316 µM) | IC50 (second compound 1 µM) | IC50 (second compound 3.16 µM) | IC50 (second compound 10 µM) | SMILES | viability, T/C [3] | viability, T/C [4] | viability, T/C [7] | viability, T/C [8] | viability, T/C [11] | viability, T/C [12] | viability, T/C [15] | viability, T/C [16] | viability, T/C [19] | viability, T/C [20] | viability, T/C [21] | viability, T/C [22] | viability, T/C [25] | viability, T/C [26] | viability, T/C [29] | further results
0.563 µM | 0.722 µM | 1.65 µM | 0.806 µM | < 0.0316 µM | COc1cc(C2c3cc4c(cc3C(OC3OC5COC(C)OC5C(O)C3O)C3COC(=O)C23)OCO4)cc(OC)c1O (stereo not given) + Cc1cncc(-c2nc(NCCc3c[nH]c4ccccc34)c3ncn(C(C)C)c3n2)c1 | 88.4% | 109% | 101% | 107% | 101% | 90.2% | 105% | 81.8% | 13.1% | 15.2% | 62.5% | 41.3% | 68.1% | 47.2% | 81.3% | viability, T/C [23]: 40%; viability, T/C [24]: 31.1%; viability, T/C [27]: 35.4%; viability, T/C [28]: 33.8%; viability, T/C [30]: 54.8%; viability, T/C [31]: 42.1%; viability, T/C [32]: 35.2%; viability, T/C [33]: 86.4%; viability, T/C [34]: 41.2%; viability, T/C [35]: 37.1%; viability, T/C [36]: 30.2%; viability, T/C [37]: 13.7%; viability, T/C [38]: 5.82%; viability, T/C [39]: 6.89%; viability, T/C [40]: 5.29%
0.0432 µM | < 0.0316 µM | 0.0422 µM | < 0.0316 µM | < 0.0316 µM | COc1cccc2c1C(=O)c1c(O)c3c(c(O)c1C2=O)CC(O)(C(=O)CO)CC3OC1CC(N)C(O)C(C)O1 (stereo not given) + Cc1cncc(-c2nc(NCCc3c[nH]c4ccccc34)c3ncn(C(C)C)c3n2)c1 | 56.2% | 32.3% | 43.8% | 39.4% | 53.4% | 39.8% | 41.2% | 35.8% | 6.65% | 10.3% | 22% | 6.38% | 18.6% | 4.66% | 14.4% | viability, T/C [23]: 2.85%; viability, T/C [24]: 7.5%; viability, T/C [27]: 4.69%; viability, T/C [28]: 7.35%; viability, T/C [30]: 4.5%; viability, T/C [31]: 2.69%; viability, T/C [32]: 5.17%; viability, T/C [33]: 10.2%; viability, T/C [34]: 2.01%; viability, T/C [35]: 3.75%; viability, T/C [36]: 5.63%; viability, T/C [37]: 4.38%; viability, T/C [38]: 1.31%; viability, T/C [39]: 1.89%; viability, T/C [40]: 2.29%
0.0424 µM | 0.0422 µM | 0.0307 µM | > 0.1 µM | < 0.000316 µM | CC[C@@]1(O)C(=O)OCc2c1cc1n(c2=O)Cc2cc3c(CN(C)C)c(O)ccc3nc2-1 + Cc1cncc(-c2nc(NCCc3c[nH]c4ccccc34)c3ncn(C(C)C)c3n2)c1 | 55.5% | 37.4% | 51.6% | 38.2% | 49.1% | 47% | 52% | 49.4% | 5.07% | 6.81% |  |  |  |  |  | viability, T/C (second compound 0.1 µM, first compound 0.000316 µM): 97.6%; viability, T/C (second compound 0.1 µM, first compound 0.001 µM): 92.5%; viability, T/C [1]: 81.2%; viability, T/C [2]: 67.5%; viability, T/C (second compound 0.316 µM, first compound 0.000316 µM): 118%; viability, T/C (second compound 0.316 µM, first compound 0.001 µM): 100%; viability, T/C [5]: 87.9%; viability, T/C [6]: 73.9%; viability, T/C (second compound 1 µM, first compound 0.000316 µM): 91.3%; viability, T/C (second compound 1 µM, first compound 0.001 µM): 111%; viability, T/C [9]: 95.5%; viability, T/C [10]: 72.4%; viability, T/C (second compound 3.16 µM, first compound 0.000316 µM): 84.3%; viability, T/C (second compound 3.16 µM, first compound 0.001 µM): 93.8%; viability, T/C [13]: 86.4%; viability, T/C [14]: 59.3%; viability, T/C (second compound 10 µM, first compound 0.000316 µM): 12.7%; viability, T/C (second compound 10 µM, first compound 0.001 µM): 10.1%; viability, T/C [17]: 14.5%; viability, T/C [18]: 7.56%

Reference: PubChem BioAssay AID1919009 (Molecular Pharmacology Branch, DTP, NCI, 2023)
